According to the NIST ThermoML archive (doi:10.1016/j.jct.2018.03.014):

Test: cn = amount concentration of the nth substance listed, in mol/dm3
Details: 298.15 K, 101.3 kPa, Liquid, Taylor dispersion method

- binary diffusion coefficient (c1 = 0.005): 1.06e-09 m2/s
- binary diffusion coefficient (c1 = 0.1): 1.04e-09 m2/s
SMILES: NCC(=O)O [2-aminoacetic acid] + O
